From patent US12084522B2, “Peptides, combination of peptides, and cell based medicaments for use in immunotherapy against urinary bladder cancer and other cancers” (Immatics Biotechnologies GmbH, priority 2016, dated 2024)

Legend:
[1] = target: HLA-A*02:01 (Homo sapiens, UniProt P04439, D140Y/D185E/D98H/E176V/E277Q/G131W/G231S/I119V/I121R/I166T/I218V/L300P/L318F/N151K/N90K/P208A/P217A/Q86G/Q94H/R138H/R169H/T345S); test: MHC binding assay (UV-ligand exchange, β2m ELISA, peptide exchange yield); conditions: binding to HLA-A*02:01 ranged by peptide exchange yield (UV-ligand exchange, β2m ELISA)
Source text: Candidate peptides for T cell based therapies according to the present invention were further tested for their MHC binding capacity (affinity). The individual peptide-MHC complexes were produced by UV-ligand exchange, where a UV-sensitive peptide is cleaved upon UV-irradiation, and exchanged with the peptide of interest as analyzed. Only peptide candidates that can effectively bind and stabilize the peptide-receptive MHC molecules prevent dissociation of the MHC complexes. To determine the yield of the exchange reaction, an ELISA was performed based on the detection of the light chain (β2 m) of stabilized MHC complexes. The assay was performed as generally described in Rodenko et al. (Rodenko et al., 2006).
96 well MAXISorp plates (NUNC) were coated over night with 2 μg/ml streptavidin in PBS at room temperature, washed 4× and blocked forth at 37° C. in 2% BSA containing blocking buffer. Refolded HLA-A*02:01/MLA-001 monomers served as standards, covering the range of 15-500 ng/ml. Peptide-MHC monomers of the UV-exchange reaction were diluted 100 fold in blocking buffer. Samples were incubated for 1 h at 37° C., washed four times, incubated with 2 ug/ml HRP conjugated anti-β2 m for 1 h at 37° C., washed again and detected with TMB solution that is stopped with […]. Absorption was measured at 450 nm. Candidate peptides that show a high exchange yield (preferably higher than 50%, most preferred higher than 75%) are generally preferred for a generation and production of antibodies or fragments thereof, and/or T cell receptors or fragments thereof, as they show sufficient avidity to the MHC molecules and prevent dissociation of the MHC complexes.

[2] = system: CD8+ T cells from healthy HLA-A*02 donors; test: In vitro immunogenicity: priming of CD8+ T cells with aAPCs loaded with peptide/MHC complexes and anti-CD28, pMHC multimer readout; assay type: cell-based, human; conditions: for Wells positive [%]: HLA-A*02 restricted peptides, positive wells among evaluable, Table 10B; for Wells (in vitro immunogenicity, positive wells): HLA class I peptides, Table 10A
Source text: In order to obtain information regarding the immunogenicity of the TUMAPs of the present invention, the inventors performed investigations using an in vitro T-cell priming assay based on repeated stimulations of CD8+ T cells with artificial antigen presenting cells (aAPCs) loaded with peptide/MHC complexes and anti-CD28 antibody.
In order to perform in vitro stimulations by artificial antigen presenting cells loaded with peptide-MHC complex (pMHC) and anti-CD28 antibody, the inventors first isolated CD8+ T cells from fresh HLA-A*02 leukapheresis products via positive selection using CD8 microbeads (Miltenyi Biotec, Bergisch-Gladbach, Germany) of healthy donors obtained from the University clinics Mannheim, Germany, after informed consent.
PBMCs and isolated CD8+ lymphocytes were incubated in T-cell medium (TCM) until use consisting of RPMI-Glutamax (Invitrogen, Karlsruhe, Germany) supplemented with 10% heat inactivated human AB serum (PAN-Biotech, Aidenbach, Germany), 100 U/ml Penicillin/100 μg/ml Streptomycin (Cambrex, Cologne, Germany), 1 mM sodium pyruvate (CC Pro, Oberdorla, Germany), 20 μg/ml Gentamycin (Cambrex). 2.5 ng/ml IL-7 (PromoCell, Heidelberg, Germany) and 10 U/ml IL-2 (Novartis Pharma, Nürnberg, Germany) were also added to the TCM at this step.
Generation of pMHC/anti-CD28 coated beads, T-cell stimulations and readout was performed in a highly defined in vitro system using four different pMHC molecules per stimulation condition and 8 different pMHC molecules per readout condition.
The purified co-stimulatory mouse IgG2a anti human CD28 Ab 9.3 (Jung et al., 1987) was chemically biotinylated using Sulfo-N-hydroxysuccinimidobiotin as recommended by the manufacturer (Perbio, Bonn, Germany). Beads used were 5.6 μm diameter streptavidin coated polystyrene particles (Bangs Laboratories, Illinois, USA).
800.000 beads/200 μl were coated in 96-well plates in the presence of 4×12.5 ng different biotin-pMHC, washed and 600 ng biotin anti-CD28 were added subsequently in a volume of 200 μl. Stimulations were initiated in 96-well plates by co-incubating 1×10^6 CD8+ T cells with 2×10^5 washed coated beads in 200 μl TCM supplemented with 5 ng/ml IL-12 (PromoCell) for 3 days at 37° C. Half of the medium was then exchanged by fresh TCM supplemented with 80 U/ml IL-2 and incubating was continued for 4 days at 37° C. This stimulation cycle was performed for a total of three times. For the pMHC multimer readout using 8 different pMHC molecules per condition, a two-dimensional combinatorial coding approach was used as previously described (Andersen et al., 2012) with minor modifications encompassing coupling to 5 different fluorochromes. Finally, multimeric analyses were performed by staining the cells with Live/dead near IR dye (Invitrogen, Karlsruhe, Germany), CD8-FITC antibody clone SK1 (BD, Heidelberg, Germany) and fluorescent pMHC multimers. For analysis, a BD LSRII SORP cytometer equipped with appropriate lasers and filters was used. Peptide specific cells were calculated as percentage of total CD8+ cells. Evaluation of multimeric analysis was done using the FlowJo software (Tree Star, Oregon, USA). In vitro priming of specific multimer+CD8+ lymphocytes was detected by comparing to negative control stimulations.

Substance	Peptide exchange [1]	Wells positive [%] [2]	Wells (in vitro immunogenicity, positive wells) [2]
4 (SLDVVNLLV; listed as Homo sapiens) [compound 4]	++++ (>75% = ++++)	+ (<20% = +)	
5 (IQDPVIFYV; listed as Homo sapiens) [compound 5]	++++ (>75% = ++++)	+++ (50%-69% = +++)	
6 (SIVDFLITA; listed as Homo sapiens) [compound 6]	+++ (>50 = +++)	+ (<20% = +)	
9 (SLVDARFQL; listed as Homo sapiens) [compound 9]	++++ (>75% = ++++)	+ (<20% = +)	
10 (GLWHGMFANV; listed as Homo sapiens) [compound 10]	++++ (>75% = ++++)	++ (20%-49% = ++)	
14 (GLAGPVRGV; listed as Homo sapiens) [compound 14]	+++ (>50 = +++)	+ (<20% = +)	
15 (YLAPENGYLMEA; listed as Homo sapiens) [compound 15]	+++ (>50 = +++)	+ (<20% = +)	
16 (ILGPQGNTI; listed as Homo sapiens) [compound 16]	+++ (>50 = +++)	+ (<20% = +)	
17 (RLSQLEGVNV; listed as Homo sapiens) [compound 17]	+++ (>50 = +++)	+ (<20% = +)	
23 (YTLSKTEFL; listed as Homo sapiens) [compound 23]	++++ (>75% = ++++)	+ (<20% = +)	
24 (SLLGGITVV; listed as Homo sapiens) [compound 24]	++++ (>75% = ++++)	++ (20%-49% = ++)	
27 (STTNGGILTV; listed as Homo sapiens) [compound 27]	+++ (>50 = +++)	+ (<20% = +)	
29 (ALSSPPPTV; listed as Homo sapiens) [compound 29]	+++ (>50 = +++)	+ (<20% = +)	
30 (ILDISRSEV; listed as Homo sapiens) [compound 30]	+++ (>50 = +++)	++++ (>=70% = ++++)	
41 (FLDDGNQMLL; listed as Homo sapiens) [compound 41]	++++ (>75% = ++++)	+ (<20% = +)	
50 (VLANRVAVV; listed as Homo sapiens) [compound 50]	+++ (>50 = +++)	++++ (>=70% = ++++)	
53 (ILVQVIPVV; listed as Homo sapiens) [compound 53]	+++ (>50 = +++)	++ (20%-49% = ++)	
57 (GLAHFVNEI; listed as Homo sapiens) [compound 57]	++++ (>75% = ++++)	+ (<20% = +)	
59 (WLSTSIPEA; listed as Homo sapiens) [compound 59]	++++ (>75% = ++++)	+ (<20% = +)	
60 (SLSDVRVIV; listed as Homo sapiens) [compound 60]	++++ (>75% = ++++)	+ (<20% = +)	
155 (VLSSGLTAA; listed as Homo sapiens) [compound 155]			+ (<20% = +)
156 (KLVEFDFLGA; listed as Homo sapiens) [compound 156]			+ (<20% = +)
159 (SLIEDLILL; listed as Homo sapiens) [compound 159]			+ (<20% = +)

Substance	Peptide exchange [1]	Wells positive [%] [2]	Wells (in vitro immunogenicity, positive wells) [2]
160 (SLLGGNIRL; listed as Homo sapiens) [compound 160]			++ (20%-49% = ++)
162 (TLLAAEFLKQV; listed as Homo sapiens) [compound 162]			+ (<20% = +)
164 (ALADLTGTVV; listed as Homo sapiens) [compound 164]			+ (<20% = +)
167 (SLWGGDVVL; listed as Homo sapiens) [compound 167]			++ (20%-49% = ++)
168 (LTAPPEALLMV; listed as Homo sapiens) [compound 168]			+ (<20% = +)
170 (GLIEIISNA; listed as Homo sapiens) [compound 170]			+ (<20% = +)
172 (LLYGHTVTV; listed as Homo sapiens) [compound 172]			++ (20%-49% = ++)
173 (FVFSFPVSV; listed as Homo sapiens) [compound 173]			++ (20%-49% = ++)
176 (SMSGYDQVL; listed as Homo sapiens) [compound 176]			+ (<20% = +)
177 (NLLQVLEKV; listed as Homo sapiens) [compound 177]			+ (<20% = +)
178 (ALNEEAGRLLL; listed as Homo sapiens) [compound 178]			+ (<20% = +)
182 (YLAPFLRNV; listed as Homo sapiens) [compound 182]			++ (20%-49% = ++)
184 (LMTKEISSV; listed as Homo sapiens) [compound 184]			+ (<20% = +)
186 (VLYPHEPTAV; listed as Homo sapiens) [compound 186]			+ (<20% = +)
189 (ALLRTVVSV; listed as Homo sapiens) [compound 189]			+ (<20% = +)
192 (ALNPADITV; listed as Homo sapiens) [compound 192]			++ (20%-49% = ++)
193 (ALVQDLAKA; listed as Homo sapiens) [compound 193]			++ (20%-49% = ++)
198 (NLIEKSIYL; listed as Homo sapiens) [compound 198]			+ (<20% = +)
200 (YLNVQVKEL; listed as Homo sapiens) [compound 200]			+ (<20% = +)
203 (FLIPYAIML; listed as Homo sapiens) [compound 203]			+ (<20% = +)
204 (GVYDGEEHSV; listed as Homo sapiens) [compound 204]			+ (<20% = +)
205 (KIVDFSYSV; listed as Homo sapiens) [compound 205]			++ (20%-49% = ++)
